Measurements published in PubChem BioAssay (NCI).
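Five compound concentrations were applied to cells in 96-well plates for 48 hours; endpoints were derived by simple linear interpolation of the resulting dose-response curve. TGI: concentration producing complete growth inhibition.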

Assays:
Test in all cases: growth of human tumour cells (NCI), 48 h
[1] = test system: HCT-116 colon
[2] = test system: HL-60(TB) leukemia
[3] = test system: HOP-92 NSCLC
[4] = test system: HS 578T breast
[5] = test system: SR leukemia
[6] = test system: RXF 393 renal
[7] = test system: OVCAR-3 ovarian
[8] = test system: NCI-H460 lung
[9] = test system: SK-OV-3 ovarian
[10] = test system: HOP-62 NSCLC
[11] = test system: M14 melanoma
[12] = test system: RPMI-8226 leukemia
[13] = test system: ACHN renal
[14] = test system: OVCAR-8 ovarian
[15] = test system: SNB-75 CNS
[16] = test system: MCF7 breast
[17] = test system: MOLT-4 leukemia
[18] = test system: UACC-257 melanoma

SMILES: C=C1[C@H](OC(=O)C(C)C)[C@]23CC4(O)[C@@H]5[C@@]6(C)CCC[C@]57C([C@@H]2C[C@@]1(O)[C@H](O)[C@@H]73)N4C6
- TGI [1]: > 100 µM
- TGI [2]: > 100 µM
- TGI [3]: > 100 µM
- TGI [4]: > 100 µM
- TGI [5]: > 100 µM
- TGI [6]: > 100 µM
- TGI [7]: > 100 µM
- TGI [8]: > 100 µM
- TGI [9]: > 100 µM
- TGI [10]: > 100 µM
- TGI [11]: > 100 µM
- TGI [12]: > 100 µM
- TGI [13]: > 100 µM
- TGI [14]: > 100 µM
- TGI [15]: > 100 µM
- TGI [16]: > 100 µM
- TGI [17]: > 100 µM
- TGI [18]: > 100 µM

SMILES: C1=Nc2ccc(cc2)N=Cc2ccc(cc2)OCc2cccc(n2)COc2ccc1cc2
- TGI [1]: > 100 µM
- TGI [2]: > 100 µM
- TGI [3]: > 100 µM
- TGI [4]: > 100 µM
- TGI [5]: > 100 µM
- TGI [6]: > 100 µM
- TGI [7]: > 100 µM
- TGI [8]: > 100 µM
- TGI [9]: > 100 µM
- TGI [10]: > 100 µM
- TGI [11]: > 100 µM
- TGI [12]: > 100 µM
- TGI [13]: > 100 µM
- TGI [14]: > 100 µM
- TGI [15]: > 100 µM
- TGI [16]: > 100 µM
- TGI [17]: > 100 µM
- TGI [18]: > 100 µM

SMILES: CC(C)(C)OC(=O)CC(NC(=O)OC(C)(C)C)C(=O)N[C@@H]1CCCC[C@H]1C(=O)OCc1ccccc1 (some centres undefined)
- TGI [1]: 52.5 µM
- TGI [2]: 68.9 µM
- TGI [3]: > 100 µM
- TGI [4]: 48 µM
- TGI [5]: > 100 µM
- TGI [6]: > 100 µM
- TGI [7]: > 100 µM
- TGI [8]: > 100 µM
- TGI [9]: 65 µM
- TGI [10]: > 100 µM
- TGI [11]: > 100 µM
- TGI [12]: 95.4 µM
- TGI [13]: > 100 µM
- TGI [14]: > 100 µM
- TGI [15]: > 100 µM
- TGI [16]: 85.5 µM
- TGI [17]: 89.1 µM
- TGI [18]: 89.4 µM

SMILES: N#CC(c1ccnc(Cl)n1)c1nc2ccccc2s1 (centres undefined)
- TGI [1]: 9.38 µM
- TGI [2]: 5.43 µM
- TGI [3]: 14.1 µM
- TGI [4]: 28.4 µM
- TGI [5]: 28.7 µM
- TGI [6]: > 62.7 µM
- TGI [7]: 26.2 µM
- TGI [8]: > 100 µM
- TGI [9]: 16 µM
- TGI [10]: 56.8 µM
- TGI [11]: 20.4 µM
- TGI [12]: 25.9 µM
- TGI [13]: > 94 µM
- TGI [14]: > 41.2 µM
- TGI [15]: 13 µM
- TGI [16]: 40.6 µM
- TGI [17]: > 39.3 µM
- TGI [18]: 41.2 µM

SMILES: COC(=O)CC1C(COC(C)=O)OC(n2cc(C)c(=O)[nH]c2=O)C1OC(C)=O (centres undefined)
- TGI [1]: > 100 µM
- TGI [2]: > 100 µM
- TGI [3]: > 100 µM
- TGI [4]: > 100 µM
- TGI [5]: > 100 µM
- TGI [6]: > 100 µM
- TGI [7]: > 100 µM
- TGI [8]: > 100 µM
- TGI [9]: > 100 µM
- TGI [10]: > 100 µM
- TGI [11]: > 100 µM
- TGI [12]: > 100 µM
- TGI [13]: > 100 µM
- TGI [14]: > 100 µM
- TGI [15]: > 100 µM
- TGI [16]: > 100 µM
- TGI [17]: > 100 µM
- TGI [18]: > 100 µM

SMILES: O=C(c1ccco1)N(Cc1ccco1)C(=S)Nc1ccccc1
- TGI [1]: 30.7 µM
- TGI [2]: 4.61 µM
- TGI [3]: 30.3 µM
- TGI [4]: 72 µM
- TGI [5]: 13.2 µM
- TGI [6]: 31.9 µM
- TGI [7]: 59.7 µM
- TGI [8]: 99.8 µM
- TGI [9]: > 100 µM
- TGI [10]: > 100 µM
- TGI [11]: 28.5 µM
- TGI [12]: 11.7 µM
- TGI [13]: 40.8 µM
- TGI [14]: 59.7 µM
- TGI [15]: > 74.9 µM
- TGI [16]: 49 µM
- TGI [17]: 27.6 µM
- TGI [18]: 57.6 µM

SMILES: Cc1cc2c(cc1Cl)SC(c1ccccc1)C(=O)NS2(=O)=O (centres undefined)
- TGI [1]: 45.6 µM
- TGI [2]: 58.9 µM
- TGI [3]: > 100 µM
- TGI [4]: 59.4 µM
- TGI [5]: 73.8 µM
- TGI [6]: > 100 µM
- TGI [7]: 53.4 µM
- TGI [8]: 86.1 µM
- TGI [9]: > 100 µM
- TGI [10]: > 100 µM
- TGI [11]: > 100 µM
- TGI [12]: > 100 µM
- TGI [13]: > 100 µM
- TGI [14]: > 100 µM
- TGI [15]: 87 µM
- TGI [16]: > 100 µM
- TGI [17]: 60.7 µM
- TGI [18]: 88.5 µM

SMILES: O=Cc1c2ccccc2n2ccc3c4ccccc4[nH]c3c12
- TGI [1]: > 10 µM
- TGI [2]: > 10 µM
- TGI [3]: > 10 µM
- TGI [4]: > 10 µM
- TGI [5]: > 10 µM
- TGI [6]: > 10 µM
- TGI [7]: > 10 µM
- TGI [8]: > 10 µM
- TGI [9]: > 10 µM
- TGI [10]: > 10 µM
- TGI [11]: > 10 µM
- TGI [12]: > 10 µM
- TGI [13]: > 10 µM
- TGI [14]: > 10 µM
- TGI [15]: > 10 µM
- TGI [16]: > 10 µM
- TGI [17]: > 10 µM
- TGI [18]: > 10 µM
